In patent US20220325242A1, “IDH2 INHIBITION FOR PRODUCING T-CELLS AND B-CELLS WITH A MEMORY PHENOTYPE” (Universite de Lausanne, priority 2019, published 2022):

What was measured:
OT2 CD4 T cells = assay: CD62L flow cytometry of OT2 CD4 T cells activated by co-culture with dendritic cells; type: cell-based, mouse; details: 5 μM for 7 days, day 7, versus DMSO
Excerpt: A new experiment has been performed on mouse T cells in order to further strengthen our claim that IDH2 inhibition also promotes memory marker expression in CD4 T cells. As indicated in the experimental scheme (FIG. 17A), we activated CD4 T cells from OT2 mice by co-culture with dendritic cells. OT2 mice are transgenic for an αβTCR recognizing specifically a chicken ovalbumine peptide 323-339 associated with the mouse MHC class II molecule I-A^b. We activated OT2 CD4 T cells by co-culture with dendritic cells loaded with […] of the ovalbumine peptide in the presence of 100 IU/ml recombinant human IL2 in the presence of 5 μM AG221 or DMSO control. After 4 days, cells were collected, washed and split, and brought back in culture with 100 IU/ml rhIL2 and 5 μM AG221 or DMSO control.

B16-OVA melanoma = assay: Tumor growth of B16-OVA tumors after adoptive transfer of inhibitor-treated OT1 T-cells; type: in vivo, mouse; details: mice adoptively transferred with T-cells treated in vitro
Description: Example 5. In vivo tumor model to characterize the phenotype and efficacy of cultured CD8+ T-cells upon adoptive cell transfer. An in vivo tumor model was used to determine the efficacy of in vitro cultured CD8+ T-cells treated with an IDH2 inhibitor in eliminating cancer cells (FIG. 10). B16-OVA melanoma cells (see Example 1) were cultured in DMEM (GIBCO) with 10% FCS and 1% P/S before their subcutaneous injection into the mouse flank. Each mouse received 100′000 cells in a volume of 200 μl of PBS. 6 days after B16-OVA cell injection, tumors were measured, mice were randomized and lymphodepleted by irradiation (5 Gray). 7 days after B16-Ova cell injection, mice were adoptively transferred with activated CD45.1^+ OT-1 splenocytes. […] Live splenocytes, almost exclusively consisting of CD8+ T-cells (about 98%), were counted with Trypan blue stain 0.4%. […]
Following the adoptive cell transfer (ACT), mice received a vaccination of CpG (50 μg/mouse) and N4 Ova peptide (10 μg/mouse) diluted in PBS to obtain a total volume of 100 μl/mouse, injected subcutaneously at the tail base to further stimulate the transferred cells. […] Tumors were measured every 2 days with a digital caliper and the tumor volume was calculated according to the formula: V=π×[d2×D]/6, wherein d is the smallest tumor axis and D is the largest tumor axis.

OT1 CD8+ T cells = assay: Extracellular flux analyses (XF-96 Seahorse) of OT1 CD8+ T cells; type: cell-based, mouse; details: day 7, compared to DMSO
Description: Example 2. In vitro culture of splenocytes comprising CD8+ T-cells. OT1 splenocytes (as described in Example 1) were cultured for 3 days at a concentration of 10^6 cells per mL in RPMI medium (Gibco 61870-01) supplemented with 10% FCS, (Gibco 10270-106), 1% Penicillin/Streptomycin (P/S; Gibco 15070-063), 0.1% 13-mercaptoethanol, 1% HEPES (Gibco 15630-080), 1× Non-essential amino acids (Gibco 11140-035), 1% L-glutamine (Gibco 25030-081), 1 mM Sodium Pyruvate (Gibco 11360-039), 100 U/m1 hIL-2 (Glaxo-IMB) and 1 μg/ml ovalbumin N4 peptide (SIINFEKL). To evaluate the effects of IDH2 inhibition on T-cell differentiation, 5 μM of a small molecule IDH2 inhibitor (AG221 or AGI6780) or a DMSO solvent control was added during this 3-day culture period. At day 3, a fraction of the splenocytes was collected and the remaining cells were cultured for 4 additional days with 100 U/ml hIL-2 and 10 ng/ml hIL-7 (Peprotech 200-07) supplementation after washing out the inhibitors and the ovalbumine N4 peptide (FIG. 1). At day 3 and day 7, the activation and differentiation state of CD8+ T-cells was determined by gene expression analysis, flow cytometry and extracellular metabolic flux analyses (see Example 3).
Real-time analysis of CD8^+ T cell oxygen consumption rate (OCR) was measured with an XF-96 Extracellular Flux Analyzer (Seahorse Bioscience) at day 7 of in vitro culture (FIG. 7). Measurements were performed while successively adding different drugs to the culture without any washing steps in between. Specifically, the measurements were performed under basal conditions, after addition of 1.25 μM oligomycin, a complex V inhibitor that blocks mitochondrial ATP synthase, after addition of 1 μM protonophore FCCP (fluoro-carbonyl cyanide phenylhydrazone) to uncouple ATP synthesis from oxygen consumption by the electron transport chain, after addition of 50 μM etomoxir to inhibit CPT1alpha, and thus fatty acid oxidation, and after addition of 100 nM rotenone and 1 μM antimycin A to inhibit the electron transport chain.
The basal OCR is the OCR measured in the absence of drugs. Addition of oligomycin allows to calculate the ATP-linked respiration by subtracting the oligomycin OCR from basal OCR. FCCP enables the electron transport chain (ETC) to reach its maximal rate, allowing to determine the cellular maximal respiratory capacity. Finally, rotenone and antimycin A inhibit the ETC which indicates the non-mitochondrial respiration. The spare respiratory capacity (SRC) is defined as the difference between basal OCR and maximal OCR obtained after FCCP addition.
In addition, the extracellular acidification rate (ECAR), which is an indicator for […], was measured using the same device under basal conditions. This allowed further calculating the OCR/ECAR ratio as indicator of basal mitochondrial activity.

[1] = system: accessible chromatin regions in OT1 T-cells; assay: ATAC-seq of OT1 T-cells; type: cell-based, mouse; details: day 7, 5 μM day 0-3, compared to DMSO-treated T-cells
Description: Methods: OT1 splenocytes were activated and cultured with 5 μM AG221 or DMSO as described in Example 2. After 3 days, the cells were washed and the IDH2 inhibitor was washed out as well. The cells were then cultured for an additional 4 days in the absence of AG221. At day 7, the cells were collected and washed once with PBS. 50′000 cells were collected for ATAC-seq while the remaining cell pellet was lysed in extraction buffer (20 mM Tris HCl, 150 mM NaCl, 1% Triton X-100, 10% glycerol, 5 mM EDTA) supplemented with Complete Mini protease inhibitor (Roche) for wester blotting.
For ATAC-seq cells were transposed with the Illumina Tagment DNA Enzyme and Buffer Small Kit according to the protocol described by Buenrostro et al. (Curr Protoc Mol Biol. 2015 Jan 5;109:21.29.1-21.29.9.). Fragments were sequenced on an Illumina NextSeq 500 instrument.

CC(C)(O)CNc1nc(Nc2ccnc(C(F)(F)F)c2)nc(-c2cccc(C(F)(F)F)n2)n1 [AG221, 2-methyl-1-[[4-[6-(trifluoromethyl)pyridin-2-yl]-6-[[2-(trifluoromethyl)pyridin-4-yl]amino]-1,3,5-triazin-2-yl]amino]propan-2-ol]
CD62L-positive population of CD4 T cells (OT2 CD4 T cells): strong increase | tumor burden, in particular tumor growth (B16-OVA melanoma): significantly reduced | OCR/ECAR ratio (OT1 CD8+ T cells): unchanged | basal oxygen consumption rate (OCR) (OT1 CD8+ T cells): significantly increased | extracellular acidification rates (ECAR) (OT1 CD8+ T cells): unchanged | maximal respiratory capacity (OT1 CD8+ T cells): significantly increased | spare respiratory capacity (SRC) (OT1 CD8+ T cells): significantly increased | more accessible regions in the DNA (ATAC-seq) [1]: 1633
